Test results published in paper PMC4794603 (Molecules and Cells, 2016).
Read-outs that look alike come from different tables or passages of the source.

How the values were obtained:
[1] = target: T1, CYP107W1 (Streptomyces avermitilis, UniProt Q93HJ0); experiment: co-crystal structure at […] Å; assay type: binding
T1 sequence (Q93HJ0 1-404): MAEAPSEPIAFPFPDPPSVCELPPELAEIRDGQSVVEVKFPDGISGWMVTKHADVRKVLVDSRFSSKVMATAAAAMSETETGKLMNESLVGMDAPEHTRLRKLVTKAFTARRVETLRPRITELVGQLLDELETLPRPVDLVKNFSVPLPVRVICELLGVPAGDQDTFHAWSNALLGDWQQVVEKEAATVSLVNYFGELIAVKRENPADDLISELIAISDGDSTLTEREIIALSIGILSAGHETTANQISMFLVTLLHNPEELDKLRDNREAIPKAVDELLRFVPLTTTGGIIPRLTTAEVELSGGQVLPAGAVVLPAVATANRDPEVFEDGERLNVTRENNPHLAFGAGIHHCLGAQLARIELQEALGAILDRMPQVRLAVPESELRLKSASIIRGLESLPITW

[2] = target: T2, CYP107W1 W178G mutant (Streptomyces avermitilis, UniProt Q93HJ0, W178G); experiment: UV-vis spectral binding titration
T2 sequence (Q93HJ0 1-404 W178G): T1 sequence (Q93HJ0 1-404)

[3] = target: T2, CYP107W1 W178G mutant; experiment: UV-vis spectral binding titration; remark: listed apart in the source
[4] = test system: [H][C@@]12OC(=O)C=C[C@@H](C)[C@H](O)[C@@H](C)C(=O)[C@@H](C)[C@H](O)[C@@H](C)C(=O)[C@H](C)[C@H](O)[C@@H](C)CC=CC=C[C@@H](CC)CC[C@@]([H])(O[C@@]3(CC[C@@H](C)[C@@H](C[C@H](C)O)O3)[C@@H]1C)[C@@H]2C; experiment: purified protein; settings: heme

CC[C@H]1/C=C\C=C\C[C@@H](C)[C@H](O)[C@@](C)(O)C(=O)[C@@H](C)[C@H](O)[C@@H](C)C(=O)[C@@H](C)[C@H](O)[C@@H](C)/C=C/C(=O)O[C@@H]2[C@H](C)[C@H](CC1)O[C@]1(CC[C@H](C)[C@H](C[C@@H](C)O)O1)[C@H]2C [OliA, oligomycin A]
co-crystal structure at 2.6 Å [1]: Coordinates and structure factors of CYP107W1-OliA have been deposited in the Protein Data Bank with accession number 4WQ0.

Clc1ccc(COC(Cn2ccnc2)c2ccc(Cl)cc2Cl)cc1 (centres unmarked) [econazole]
Kd [2]: 5.3 ± 0.4 µM

Clc1ccc(COC(Cn2ccnc2)c2ccc(Cl)cc2Cl)c(Cl)c1 (centres unmarked) [miconazole]
Kd [2]: 3.1 ± 0.3 µM

CC[C@@H]1/C=C/C=C/C[C@H](C)[C@H](O)[C@](C)(O)C(=O)[C@H](C)[C@@H](O)[C@H](C)C(=O)[C@H](C)[C@@H](O)[C@H](C)/C=C/C(=O)O[C@H]2[C@@H](C)[C@@H](CC1)O[C@@]1(CC[C@@H](C)[C@@H](C[C@H](C)O)O1)[C@@H]2C [oligomycin A]
Kd [3]: 4.3 ± 0.7 µM

CYP107W1 W178G mutant (Streptomyces avermitilis; W178G)
Km [4]: 3.4 ± 0.4 µM
